Experimental data reported in patent US20260297070A1, “CYCLIC [COMPOUND LEFT OUT] WRN INHIBITORS” (Nimbus Wadjet, Inc., priority 2023, published 2026).

molecular target: T1, human Werner helicase (WRN-BV08, Uniprot Q14191, amino acids 517-1235 with L1074F point mutation) (Homo sapiens, UniProt Q14191, L1074F); test: WRN (BV08) ADP-Glo Assay; format: biochemical; details: 0.15 nM WRN, 5 μM ATP, 0.1 nM DNA duplex, 15 min preincubation, 60 min at 25° C., pH 7.5, 1% DMSO; read-out: ADP-Glo_hWRN_IC50
T1 construct: Uniprot Q14191, amino acids 517-1235 with L1074F point mutation; TEV-cleavable 8×His (C, cleaved yes); made in house; host or cells: Sf9 insect cells (baculovirus)
Summary of the method: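 ADP-Glo luminescence read-out of ATP hydrolysis. Conditions: 0.15 nM WRN, 5 μM ATP, 0.1 nM DNA duplex, 1% DMSO, 60 min at 25 °C after 15 min compound preincubation. Max/min controls were DMSO and 20 μM NSC-617145; IC50 from four-parameter fit.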

T1 sequence (Q14191 with tags, fused parts or gaps L1074F limits assumed): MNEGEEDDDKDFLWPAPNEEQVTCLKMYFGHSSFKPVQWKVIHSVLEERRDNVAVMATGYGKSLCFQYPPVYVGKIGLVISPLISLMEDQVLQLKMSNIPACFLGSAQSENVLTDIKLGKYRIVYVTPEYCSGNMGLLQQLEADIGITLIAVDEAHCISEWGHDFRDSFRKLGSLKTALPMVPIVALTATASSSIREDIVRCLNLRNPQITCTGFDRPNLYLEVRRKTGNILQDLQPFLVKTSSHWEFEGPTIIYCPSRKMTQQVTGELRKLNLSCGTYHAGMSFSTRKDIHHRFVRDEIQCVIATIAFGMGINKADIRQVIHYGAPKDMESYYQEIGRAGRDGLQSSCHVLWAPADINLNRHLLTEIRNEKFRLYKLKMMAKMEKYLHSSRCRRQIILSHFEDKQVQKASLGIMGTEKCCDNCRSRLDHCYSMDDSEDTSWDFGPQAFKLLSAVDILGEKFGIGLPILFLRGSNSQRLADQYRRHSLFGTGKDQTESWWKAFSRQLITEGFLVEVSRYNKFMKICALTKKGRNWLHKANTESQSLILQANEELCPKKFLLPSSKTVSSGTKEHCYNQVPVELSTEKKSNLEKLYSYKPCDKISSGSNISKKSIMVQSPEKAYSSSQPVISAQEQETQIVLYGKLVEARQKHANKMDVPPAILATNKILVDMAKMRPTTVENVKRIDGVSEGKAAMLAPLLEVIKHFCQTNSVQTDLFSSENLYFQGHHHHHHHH

IC50, > 50 µM:
O=C(Cc1ccc(-n2cccn2)cc1)N(Cc1ccncc1)C1C=CS(=O)(=O)C1 (stereo not shown) [I-419, N-(1,1-dioxo-2,3-dihydro-1lambda6-thiophen-3-yl)-2-[4-(1H-pyrazol-1-yl)phenyl]-N-[(pyridin-4-yl)methyl]acetamide]
O=C(Cn1cnc(-c2ccccc2)n1)N(Cc1ccncc1)C1C=CS(=O)(=O)C1 (stereo not shown) [I-420, N-(1,1-dioxo-2,3-dihydro-1lambda6-thiophen-3-yl)-2-(3-phenyl-1H-1,2,4-triazol-1-yl)-N-[(pyridin-4-yl)methyl]acetamide]
O=C(Cc1ccc(-n2cccc2)cc1)N(c1ccccc1)C1C=CS(=O)(=O)C1 (stereo not shown) [I-421, N-(1,1-dioxo-2,3-dihydro-1lambda6-thiophen-3-yl)-N-phenyl-2-[4-(1H-pyrrol-1-yl)phenyl]acetamide]
O=C(C1Cc2ccc(-n3cccc3)cc2C1)N(Cc1ccncc1)C1C=CS(=O)(=O)C1 (stereo not shown) [I-422, N-(1,1-dioxo-2,3-dihydro-1lambda6-thiophen-3-yl)-N-[(pyridin-4-yl)methyl]-5-(1H-pyrrol-1-yl)-2,3-dihydro-1H-indene-2-carboxamide]
O=C(c1c[nH]c2cc(-c3ccc(F)cc3)ccc12)N(Cc1ccncc1)C1C=CS(=O)(=O)C1 (stereo not shown) [I-423, N-(1,1-dioxo-2,3-dihydro-1lambda6-thiophen-3-yl)-6-(4-fluorophenyl)-N-[(pyridin-4-yl)methyl]-1H-indole-3-carboxamide]
CC(C)(O)c1cc(CN(C(=O)c2c[nH]c3cc(-c4ccc(F)cc4)ccc23)C2C=CS(=O)(=O)C2)ccn1 (stereo not shown) [I-424, N-(1,1-dioxo-2,3-dihydro-1lambda6-thiophen-3-yl)-6-(4-fluorophenyl)-N-{[2-(2-hydroxypropan-2-yl)pyridin-4-yl]methyl}-1H-indole-3-carboxamide]
COc1cc(CN(C(=O)Cc2ccc(-n3cccc3C)cc2F)[C@H]2C=CS(=O)(=O)C2)ccn1 [I-425, N-[(3S)-1,1-dioxo-2,3-dihydro-1lambda6-thiophen-3-yl]-2-[2-fluoro-4-(2-methyl-1H-pyrrol-1-yl)phenyl]-N-[(2-methoxypyridin-4-yl)methyl]acetamide]
O=C(Cn1cc(Cl)cn1)N(Cc1ccncc1)C1C=CS(=O)(=O)C1 (stereo not shown) [I-427, 2-(4-chloro-1H-pyrazol-1-yl)-N-(1,1-dioxo-2,3-dihydro-1lambda6-thiophen-3-yl)-N-[(pyridin-4-yl)methyl]acetamide]
O=C(Cc1ccc2oc3ccccc3c2c1)N(Cc1ccncc1)C1C=CS(=O)(=O)C1 (stereo not shown) [I-428, N-(1,1-dioxo-2,3-dihydro-1lambda6-thiophen-3-yl)-2-{8-oxatricyclo[7.4.0.0^{2,7}]trideca-1(13),2,4,6,9,11-hexaen-4-yl}-N-[(pyridin-4-yl)methyl]acetamide]
O=C(Cn1cc(C2CC2)cn1)N(Cc1ccncc1)C1C=CS(=O)(=O)C1 (stereo not shown) [I-429, 2-(4-cyclopropyl-1H-pyrazol-1-yl)-N-(1,1-dioxo-2,3-dihydro-1lambda6-thiophen-3-yl)-N-[(pyridin-4-yl)methyl]acetamide]
O=C(Cc1cccc2ccccc12)N(Cc1ccncc1)C1C=CS(=O)(=O)C1 (stereo not shown) [I-431, N-(1,1-dioxo-2,3-dihydro-1lambda6-thiophen-3-yl)-2-(naphthalen-1-yl)-N-[(pyridin-4-yl)methyl]acetamide]
N#CCOc1ccc(CC(=O)N(Cc2ccncc2)C2C=CS(=O)(=O)C2)cc1 (stereo not shown) [I-432, 2-[4-(cyanomethoxy)phenyl]-N-(1,1-dioxo-2,3-dihydro-1lambda6-thiophen-3-yl)-N-[(pyridin-4-yl)methyl]acetamide]
O=C(Cn1cc2ccccc2n1)N(Cc1ccncc1)C1C=CS(=O)(=O)C1 (stereo not shown) [I-433, N-(1,1-dioxo-2,3-dihydro-1lambda6-thiophen-3-yl)-2-(2H-indazol-2-yl)-N-[(pyridin-4-yl)methyl]acetamide]
Cc1c(CC(=O)N(Cc2ccncc2)C2C=CS(=O)(=O)C2)nnn1-c1ccccc1 (stereo not shown) [I-434, N-(1,1-dioxo-2,3-dihydro-1lambda6-thiophen-3-yl)-2-(5-methyl-1-phenyl-1H-1,2,3-triazol-4-yl)-N-[(pyridin-4-yl)methyl]acetamide]
O=C(C(C1CC1)n1cc(-c2ccccc2)cn1)N(Cc1ccncc1)C1C=CS(=O)(=O)C1 (stereo not shown) [I-435, 2-cyclopropyl-N-(1,1-dioxo-2,3-dihydro-1lambda6-thiophen-3-yl)-2-(4-phenyl-1H-pyrazol-1-yl)-N-[(pyridin-4-yl)methyl]acetamide]
Cc1cnn(CC(=O)N(Cc2ccncc2)C2C=CS(=O)(=O)C2)c1 (stereo not shown) [I-436, N-(1,1-dioxo-2,3-dihydro-1lambda6-thiophen-3-yl)-2-(4-methyl-1H-pyrazol-1-yl)-N-[(pyridin-4-yl)methyl]acetamide]
O=C(Cc1cccc(C2CC2)c1)N(Cc1ccncc1)C1C=CS(=O)(=O)C1 (stereo not shown) [I-437, 2-(3-cyclopropylphenyl)-N-(1,1-dioxo-2,3-dihydro-1lambda6-thiophen-3-yl)-N-[(pyridin-4-yl)methyl]acetamide]
O=C(Cc1csc(C2CC2)n1)N(Cc1ccncc1)C1C=CS(=O)(=O)C1 (stereo not shown) [I-438, 2-(2-cyclopropyl-1,3-thiazol-4-yl)-N-(1,1-dioxo-2,3-dihydro-1lambda6-thiophen-3-yl)-N-[(pyridin-4-yl)methyl]acetamide]
O=C(CC12CC(c3ccccc3)(C1)C2)N(Cc1ccncc1)C1C=CS(=O)(=O)C1 (stereo not shown) [I-439, N-(1,1-dioxo-2,3-dihydro-1lambda6-thiophen-3-yl)-2-{3-phenylbicyclo[1.1.1]pentan-1-yl}-N-[(pyridin-4-yl)methyl]acetamide]
O=C(Cc1nc(C2CCCC2)cs1)N(Cc1ccncc1)C1C=CS(=O)(=O)C1 (stereo not shown) [I-440, 2-(4-cyclopentyl-1,3-thiazol-2-yl)-N-(1,1-dioxo-2,3-dihydro-1lambda6-thiophen-3-yl)-N-[(pyridin-4-yl)methyl]acetamide]
Cc1ccnn1-c1ccc(CC(=O)N(Cc2ccncc2)C2C=CS(=O)(=O)C2)cc1 (stereo not shown) [I-441, N-(1,1-dioxo-2,3-dihydro-1lambda6-thiophen-3-yl)-2-[4-(5-methyl-1H-pyrazol-1-yl)phenyl]-N-[(pyridin-4-yl)methyl]acetamide]
O=C(Cn1nnc(-c2ccccc2)n1)N(Cc1ccncc1)C1C=CS(=O)(=O)C1 (stereo not shown) [I-442, N-(1,1-dioxo-2,3-dihydro-1lambda6-thiophen-3-yl)-2-(5-phenyl-2H-1,2,3,4-tetrazol-2-yl)-N-[(pyridin-4-yl)methyl]acetamide]
Cn1c(CC(=O)N(Cc2ccncc2)C2C=CS(=O)(=O)C2)nnc1-c1ccccc1 (stereo not shown) [I-443, N-(1,1-dioxo-2,3-dihydro-1lambda6-thiophen-3-yl)-2-(4-methyl-5-phenyl-4H-1,2,4-triazol-3-yl)-N-[(pyridin-4-yl)methyl]acetamide]
O=C1CCCN1c1ccc(CC(=O)N(Cc2ccncc2)C2C=CS(=O)(=O)C2)cc1 (stereo not shown) [I-444, N-(1,1-dioxo-2,3-dihydro-1lambda6-thiophen-3-yl)-2-[4-(2-oxopyrrolidin-1-yl)phenyl]-N-[(pyridin-4-yl)methyl]acetamide]
O=C(Cc1csc(C2CCCC2)n1)N(Cc1ccncc1)C1C=CS(=O)(=O)C1 (stereo not shown) [I-445, 2-(2-cyclopentyl-1,3-thiazol-4-yl)-N-(1,1-dioxo-2,3-dihydro-1lambda6-thiophen-3-yl)-N-[(pyridin-4-yl)methyl]acetamide]
Cc1nn(CC(=O)N(Cc2ccncc2)C2C=CS(=O)(=O)C2)cc1-c1ccccc1 (stereo not shown) [I-446, N-(1,1-dioxo-2,3-dihydro-1lambda6-thiophen-3-yl)-2-(3-methyl-4-phenyl-1H-pyrazol-1-yl)-N-[(pyridin-4-yl)methyl]acetamide]
O=C(Nc1ccc(CC(=O)N(Cc2ccncc2)C2C=CS(=O)(=O)C2)cc1)C1CC1 (stereo not shown) [I-448, N-(4-{[(1,1-dioxo-2,3-dihydro-1lambda6-thiophen-3-yl)[(pyridin-4-yl)methyl]carbamoyl]methyl}phenyl)cyclopropanecarboxamide]
O=C(Cc1ccc(C2CCCC2O)cc1)N(Cc1ccncc1)C1C=CS(=O)(=O)C1 (stereo not shown) [I-449, N-(1,1-dioxo-2,3-dihydro-1lambda6-thiophen-3-yl)-2-[4-(2-hydroxycyclopentyl)phenyl]-N-[(pyridin-4-yl)methyl]acetamide]
O=C(Cn1ccc(-c2ccccc2)n1)N(Cc1ccncc1)C1C=CS(=O)(=O)C1 (stereo not shown) [I-450, N-(1,1-dioxo-2,3-dihydro-1lambda6-thiophen-3-yl)-2-(3-phenyl-1H-pyrazol-1-yl)-N-[(pyridin-4-yl)methyl]acetamide]
COc1ccc(COc2cc(CC(=O)N(Cc3ccnc(OC)c3)C3C=CS(=O)(=O)C3)ccc2-c2ccc(F)cn2)cc1 (stereo not shown) [I-451, N-(1,1-dioxo-2,3-dihydro-1lambda6-thiophen-3-yl)-2-[4-(5-fluoropyridin-2-yl)-3-[(4-methoxyphenyl)methoxy]phenyl]-N-[(2-methoxypyridin-4-yl)methyl]acetamide]

same assay, conditions: ADP-Glo_hWRN_IC50, 0.15 nM WRN, 5 μM ATP, 0.1 nM DNA duplex, 15 min preincubation, 60 min at 25° C., pH 7.5, 1% DMSO

IC50, > 50 µM:
O=C(CN1CC=C(c2ccccc2)CC1)N(c1ccccc1)C1C=CS(=O)(=O)C1 (stereo not shown) [I-430, N-(1,1-dioxo-2,3-dihydro-1lambda6-thiophen-3-yl)-N-phenyl-2-(4-phenyl-1,2,3,6-tetrahydropyridin-1-yl)acetamide]
